Measured values reported in patent US20230348540A1, “Viral multimeric peptide constructs for targeting PDZ domains” (University of Copenhagen, priority 2020, published 2023).
Peptide text beside a SMILES is read from it. * marks the point of attachment. Biotin = O=C1N[C@H]2[C@H](CS[C@H]2CCCCC(=O)*)N1; Ahx = NCCCCCC(=O)O

What was measured:
PICK1 [1] = biological target: T1, PICK1 (Rattus norvegicus, UniProt Q9EP80); test: Fluorescence Polarization for PICK1 (Example 8); format: binding; details: in words, FIG. 17
T1 construct: Full length rat PICK1 (pET41) was prepared as described earlier; inferred from pET41 and glutathione-Sepharose capture) (N, cleaved yes); made in house; host or cells: E. coli BL21-DE3-pLysS
T1 sequence (Q9EP80 whole entry): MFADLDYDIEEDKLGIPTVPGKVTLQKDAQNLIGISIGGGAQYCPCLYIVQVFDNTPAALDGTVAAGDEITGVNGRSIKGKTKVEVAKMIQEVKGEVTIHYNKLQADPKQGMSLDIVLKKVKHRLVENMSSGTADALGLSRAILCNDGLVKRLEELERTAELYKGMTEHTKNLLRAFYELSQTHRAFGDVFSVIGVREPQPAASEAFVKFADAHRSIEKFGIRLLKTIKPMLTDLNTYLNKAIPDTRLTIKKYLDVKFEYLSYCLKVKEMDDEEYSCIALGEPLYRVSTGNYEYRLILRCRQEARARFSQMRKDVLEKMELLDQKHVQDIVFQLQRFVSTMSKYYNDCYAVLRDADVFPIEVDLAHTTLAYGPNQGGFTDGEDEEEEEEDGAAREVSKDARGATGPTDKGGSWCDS
Procedure: The plates were incubated 30-40 min on ice and the fluorescence polarization was measured on an Omega POLARstar plate (BMG LABTECH) reader using excitation filter at 485 nm and long pass emission filter at 520 nm. The data was plotted using GraphPad Prism 8.3, and fitted to the ‘One site—Fit’ Ki competition curve, to extract apparent KI values.

[2] = SEC-MALS of peptides (oligomeric state); format: physicochemical; details: 50 μL of 1000 μM peptide, Example 7
Procedure: Size exclusion chromatography Multi angle light scattering (SEC-MALS): was done using an Agilent HPLC equipped with a Wyatt MALS setup, where 50 μL of 1000 μM, of indicated peptide, was loaded onto a Superdex200 Increase 10/300 column. Resulting data was analyzed and molecular weight was calculated using the ASTRA® software package, data was plotted using GraphPad Prism 8.3.

PSD-95 PDZ12 [3] = biological target: T2, PSD-95 PDZ12 (Homo sapiens, UniProt P78352); test: Fluorescence polarization for PSD-95 PDZ12 (Example 8); format: binding; details: in words, FIG. 18
T2 construct: Fluorescence polarization for PSD-95 (FL and PDZ12)
T2 sequence (P78352 61-249 limits assumed): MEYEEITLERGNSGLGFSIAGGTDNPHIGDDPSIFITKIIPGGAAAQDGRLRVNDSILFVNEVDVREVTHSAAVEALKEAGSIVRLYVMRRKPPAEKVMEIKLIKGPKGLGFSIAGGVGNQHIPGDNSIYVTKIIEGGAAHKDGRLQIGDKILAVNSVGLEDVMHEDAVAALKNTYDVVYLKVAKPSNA
Procedure: Fluorescence polarization for PSD-95 (FL and PDZ12): Fluorescence polarization was carried out in competition mode at a fixed concentration of protein (150 nM) and tracer (5[…], 5 nM), against an increasing concentration of unlabeled peptide.

FL-PSD-95 = biological target: T3, FL-PSD-95 (Homo sapiens, UniProt P78352); test: Size exclusion chromatography of PSD-95 in absence or presence of peptide; details: 10 μM FL-PSD-95, 50 μM peptide, Example 8
T3 construct: TRX-6xHis-hPSD95 1-724 encoding plasmid; TRX (thioredoxin) (N); 6xHis (N); made in house; host or cells: E. coli BL21-DE3-pLysS
T3 sequence (P78352 whole entry): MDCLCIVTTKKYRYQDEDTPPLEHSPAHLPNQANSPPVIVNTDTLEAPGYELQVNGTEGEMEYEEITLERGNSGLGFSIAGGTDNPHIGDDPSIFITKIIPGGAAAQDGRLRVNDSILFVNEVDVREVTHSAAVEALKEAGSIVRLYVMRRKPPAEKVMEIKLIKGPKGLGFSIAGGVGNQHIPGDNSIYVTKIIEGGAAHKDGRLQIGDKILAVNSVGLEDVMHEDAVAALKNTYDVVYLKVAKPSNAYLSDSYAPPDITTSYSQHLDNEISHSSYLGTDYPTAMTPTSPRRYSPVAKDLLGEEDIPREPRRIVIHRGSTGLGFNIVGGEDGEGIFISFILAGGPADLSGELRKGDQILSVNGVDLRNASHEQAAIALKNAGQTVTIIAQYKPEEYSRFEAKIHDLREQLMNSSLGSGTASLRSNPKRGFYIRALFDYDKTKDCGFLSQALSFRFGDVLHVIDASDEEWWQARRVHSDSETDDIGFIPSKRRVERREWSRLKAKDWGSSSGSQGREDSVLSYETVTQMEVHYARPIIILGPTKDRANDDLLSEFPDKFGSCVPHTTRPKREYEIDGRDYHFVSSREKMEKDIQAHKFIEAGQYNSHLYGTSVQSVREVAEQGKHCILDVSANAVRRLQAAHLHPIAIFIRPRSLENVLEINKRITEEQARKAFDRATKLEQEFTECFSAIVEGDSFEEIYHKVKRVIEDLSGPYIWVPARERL
Procedure: (§1) Size exclusion chromatography: was done using a Äkta purifier with a Superdex200 Increase 10/300 column, where, 500 μL of 30 μM PICK1 or 200 μL 10 uM of FL-PSD-95 in absence or presence of peptides was loaded. Absorbance profile was measured at 280 nm and plotted against elution volume using Graph Pad Prism 8.3.

PSD-95 PDZ12 [4] = biological target: T2, PSD-95 PDZ12; test: Confocal microscopy on liquid-liquid phase separation droplets, PSD-95 PDZ1-2 (Example 8); details: 100 μM PSD-95 PDZ1-2
Procedure: Images were acquired using averaging of 4 line scans and 12-bit. The liquid-liquid phase separation droplets were prepared in the desired concentration in Phosphate buffered Saline supplemented with 1 mM TCEP (PBS-TCEP) and added to an untreated lab tec (155411PK) and imaged after being allowed to settle for 5 min at 25° C. For samples containing fluorescent protein or peptide the content of fluorescent protein or peptide was kept at 1% of indicated total protein or peptide concentration.

PICK1 [5] = biological target: T1, PICK1; test: Size exclusion chromatography of PICK1 in absence or presence of peptide; details: 30 μM PICK1, 50 μM peptide, Example 8
Procedure: Absorbance profiles were measured at 280 nm and plotted against elution volume using Graph Pad Prism 8.3.
as §1

PICK1 [6] = biological target: T1, PICK1; test: Fluorescence polarization competition of HWLKV substitution peptide libraries (Example 6); format: binding; details: relative to HWLKV, tracer 5FAM-HWLKV 20 nM, FIG. 7, in words
Procedure: Fluorescence polarization: Fluorescence polarization was carried out in competition mode at a fixed concentration of protein and tracer (5[…], 20 nM), against an increasing concentration of indicated unlabeled peptide. The plate was incubated 20 min on ice in a black half-area Corning Black non-binding surface 96-well plate and the fluorescence polarization was measured directly on a Omega POLARstar plate reader using excitation filter at 488-nm and long pass emission filter at 535-nm.

PSD-95 = biological target: T4, PSD-95 (Homo sapiens, UniProt P78352); test: SDS-PAGE sedimentation assay; details: 3 μM PSD-95, 12 μM or 36 μM peptide
T4 construct: TRX-6xHis-hPSD95 1-724 encoding plasmid; TRX (thioredoxin) (N); 6xHis (N); made in house; host or cells: E. coli BL21-DE3-pLysS
T4 sequence (P78352 whole entry): as above
Procedure: SDS-PAGE sedimentation assay: Proteins were mixed in the desired concentration in PBS-TCEP and equilibrated for 10 min before centrifugation at 20 000 g for 15 min at 25° C. using a temperature controlled table top centrifuge. Following centrifugation the supernatant was collected and the pellet was re-suspended in an equal amount of PBS-TCEP, usually 50 μL. To ensure proper resuspension of LLPS, the samples were vortexed before addition of SDS buffer followed by boiling at 95° C. for 5 min. Supernatant and pellet fractions were run on any kD™ Mini-PROTEAN® TGX™ Precast Protein Gels (10 or 15 wells, BioRad 4569036 or 4569033). Gels were imaged using a Li-COR Odyssey gel scanner and band intensities were analyzed using ImageJ.

For `CC[C@H](C)[C@H](NC(=O)[C@H](CCC(=O)O)NC(=O)CNC(=O)CCCCCNC(=O)CCCC[C@@H]1SC[C@@H]2NC(=O)N[C@@H]21)C(=O)N[C@@H](C)C(=O)N[C@@H](CCCCN)C(=O)N[C@@H](CO)C(=O)N[C@@H](CC(C)C)C(=O)N[C@@H](CCCCN)C(=O)N[C@@H](CCC(=O)O)C(=O)N[C@H](C(=O)N[C@@H](C)C(=O)N[C@@H](CCCCN)C(=O)N[C@@H](CO)C(=O)N[C@@H](CC(C)C)C(=O)N[C@@H](CCCCN)C(=O)N[C@@H](CCC(=O)O)C(=O)N[C@H](C(=O)N[C@@H](C)C(=O)N[C@@H](Cc1c[nH]c2ccccc12)C(=O)N[C@@H](CO)C(=O)N[C@@H](CC(C)C)C(=O)N[C@@H](CCCCN)C(=O)N[C@@H](CCC(=O)O)C(=O)N[C@H](C(=O)N[C@@H](C)C(=O)N[C@@H](CCCCN)C(=O)N[C@@H](CO)C(=O)N[C@@H](CC(C)C)C(=O)N[C@@H](CCCCN)C(=O)NCC(=O)NCC(=O)NCC(=O)NCC(=O)N[C@@H](CO)C(=O)N[C@@H](Cc1c[nH]cn1)C(=O)N[C@@H](Cc1c[nH]c2ccccc12)C(=O)N[C@@H](CC(C)C)C(=O)N[C@@H](CCCCN)C(=O)N[C@H](C(=O)O)C(C)C)[C@@H](C)CC)[C@@H](C)CC)[C@@H](C)CC` [CC-Hex2-GS4-HWLKV] ({Biotin-Ahx}-GEIAKSLKEIAKSLKEIAWSLKEIAKSLKGGGGSHWLKV-OH; C-terminus assumed), the “binding affinity to PICK1 as compared to the dimeric GCN4p1-GS4-HWLKV” value (PICK1 [1]) was “superior binding affinity” and the “oligomeric configuration (SEC-MALS)” value [2] was “hexameric configuration”.
For `CC[C@H](C)[C@H](NC(=O)[C@H](CCC(=O)O)NC(=O)CNC(=O)CCCCCNC(=O)CCCC[C@@H]1SC[C@@H]2NC(=O)N[C@@H]21)C(=O)N[C@@H](C)C(=O)N[C@@H](CCCCN)C(=O)N[C@@H](CO)C(=O)N[C@@H](CC(C)C)C(=O)N[C@@H](CCCCN)C(=O)N[C@@H](CCC(=O)O)C(=O)N[C@H](C(=O)N[C@@H](C)C(=O)N[C@@H](CCCCN)C(=O)N[C@@H](CO)C(=O)N[C@@H](CC(C)C)C(=O)N[C@@H](CCCCN)C(=O)N[C@@H](CCC(=O)O)C(=O)N[C@H](C(=O)N[C@@H](C)C(=O)N[C@@H](Cc1c[nH]c2ccccc12)C(=O)N[C@@H](CO)C(=O)N[C@@H](CC(C)C)C(=O)N[C@@H](CCCCN)C(=O)N[C@@H](CCC(=O)O)C(=O)N[C@H](C(=O)N[C@@H](C)C(=O)N[C@@H](CCCCN)C(=O)N[C@@H](CO)C(=O)N[C@@H](CC(C)C)C(=O)N[C@@H](CCCCN)C(=O)NCC(=O)NCC(=O)NCC(=O)NCC(=O)N[C@@H](CO)C(=O)N[C@H](C(=O)N[C@@H](CCC(=O)O)C(=O)N[C@H](C(=O)N[C@@H](CC(=O)O)C(=O)N[C@H](C(=O)O)C(C)C)[C@@H](C)O)[C@@H](C)CC)[C@@H](C)CC)[C@@H](C)CC)[C@@H](C)CC` [CC-Hex2-GS4-IETDV] ({Biotin-Ahx}-GEIAKSLKEIAKSLKEIAWSLKEIAKSLKGGGGSIETDV-OH; C-terminus assumed), the “binding affinity towards PSD95 PDZ1-2” value (PSD-95 PDZ12 [3]) was “high binding affinity” and the “formation of higher order oligomers of PSD-95 (SEC)” value (FL-PSD-95) was “ability to form higher order oligomers of PSD-95”.
For `CC[C@H](C)[C@H](NC(=O)[C@H](CCC(=O)O)NC(=O)CNC(=O)CCCCCNC(=O)CCCC[C@@H]1SC[C@@H]2NC(=O)N[C@@H]21)C(=O)N[C@@H](C)C(=O)N[C@@H](CCCCN)C(=O)N[C@@H](CO)C(=O)N[C@@H](CC(C)C)C(=O)N[C@@H](CCCCN)C(=O)N[C@@H](CCC(=O)O)C(=O)N[C@H](C(=O)N[C@@H](C)C(=O)N[C@@H](CCCCN)C(=O)N[C@@H](CO)C(=O)N[C@@H](CC(C)C)C(=O)N[C@@H](CCCCN)C(=O)N[C@@H](CCC(=O)O)C(=O)N[C@H](C(=O)N[C@@H](C)C(=O)N[C@@H](Cc1c[nH]c2ccccc12)C(=O)N[C@@H](CO)C(=O)N[C@@H](CC(C)C)C(=O)N[C@@H](CCCCN)C(=O)N[C@@H](CCC(=O)O)C(=O)N[C@H](C(=O)N[C@@H](C)C(=O)N[C@@H](CCCCN)C(=O)N[C@@H](CO)C(=O)N[C@@H](CC(C)C)C(=O)N[C@@H](CCCCN)C(=O)NCC(=O)NCC(=O)NCC(=O)NCC(=O)N[C@@H](CO)C(=O)N[C@@H](CCCNC(=N)N)C(=O)N[C@@H](CCCNC(=N)N)C(=O)N[C@H](C(=O)N[C@H](C(=O)N1CCC[C@H]1C(=O)N[C@H](C(=O)O)C(C)C)[C@@H](C)O)[C@@H](C)O)[C@@H](C)CC)[C@@H](C)CC)[C@@H](C)CC` [CC-Hex2-GS4-RRTTPV] ({Biotin-Ahx}-GEIAKSLKEIAKSLKEIAWSLKEIAKSLKGGGGSRRTTPV-OH; C-terminus assumed), the “binding affinity towards PSD95 PDZ1-2” value (PSD-95 PDZ12 [3]) was “high binding affinity”, the “threshold for LLPS formation of PSD-95 PDZ1-2 versus dimeric GCN4p1-GS4-RRTTPV” value (PSD-95 PDZ12 [4]) was “lowered thresholds for LLPS formation” and the “formation of higher order oligomers of PSD-95 (SEC)” value (FL-PSD-95) was “Formation of higher order oligomers of PSD-95 was also observed”.
For `CC[C@H](C)[C@H](NC(=O)[C@H](C)NC(=O)[C@H](C)NC(=O)[C@H](CC(C)C)NC(=O)[C@H](CCC(=O)O)NC(=O)[C@H](Cc1c[nH]c2ccccc12)NC(=O)[C@H](CCCCN)NC(=O)[C@@H](NC(=O)[C@H](C)NC(=O)[C@H](C)NC(=O)[C@H](CC(C)C)NC(=O)[C@H](CCC(=O)O)NC(=O)[C@H](CCCCN)NC(=O)[C@H](CCCCN)NC(=O)[C@@H](NC(=O)[C@H](C)NC(=O)[C@H](C)NC(=O)[C@H](CC(C)C)NC(=O)[C@H](CCC(=O)O)NC(=O)[C@H](CCC(N)=O)NC(=O)[C@H](CCCCN)NC(=O)[C@@H](NC(=O)[C@H](C)NC(=O)[C@H](C)NC(=O)[C@H](CC(C)C)NC(=O)[C@H](CCC(=O)O)NC(=O)CNC(=O)CCCCCNC(=O)CCCC[C@@H]1SC[C@@H]2NC(=O)N[C@@H]21)[C@@H](C)CC)[C@@H](C)CC)[C@@H](C)CC)C(=O)N[C@@H](CCCCN)C(=O)N[C@@H](CCC(N)=O)C(=O)NCC(=O)NCC(=O)NCC(=O)NCC(=O)N[C@@H](CO)C(=O)N[C@@H](Cc1c[nH]cn1)C(=O)N[C@@H](Cc1c[nH]c2ccccc12)C(=O)N[C@@H](CC(C)C)C(=O)N[C@@H](CCCCN)C(=O)N[C@H](C(=O)O)C(C)C` [CC-Tet-GS4-HWLKV] ({Biotin-Ahx}-GELAAIKQELAAIKKELAAIKWELAAIKQGGGGSHWLKV-OH; C-terminus assumed), the “formation of higher order oligomers of PICK1 (SEC)” value (PICK1 [5]) was “ability to form higher order oligomers of PICK1” and the “oligomeric configuration (SEC-MALS)” value [2] was “trimeric configuration”.
For EIRV (DAT C5 VARIANT), the “Fold affinity change of combinatorial peptide library” value (from here on “Fold affinity change”) (PICK1 [6]) was “optimal 4-mer sequences”.
In the case of “GEIAKSLKEIAKSLKEIAWSLKEIAKSLKGGGGSNSVRV (CC-Hex2-GS4-NSVRV)”, the “binding affinity to PICK1 as compared to the dimeric GCN4p1-GS4-HWLKV” value (PICK1 [1]) was “superior binding affinity”.
With IIV [DAT-C5 variant] the “Fold affinity change” value (PICK1 [6]) was “optimal 3-mer sequences”.
In the case of IRV [DAT-C5 variant], the “Fold affinity change” value (PICK1 [6]) was “optimal 3-mer sequences”.
In the case of NSVRV (DAT C5 VARIANT), the “Fold affinity change” value (PICK1 [6]) was “optimal 5-mer sequences”.
In the case of SNTANRRTTPV (RRTTPV monomer), the “distribution of PSD-95 between supernatant and pellet” value (PSD-95) was “the majority of PSD-95 is found in the supernatant”.
For TSIRV (DAT C5 VARIANT), the “Fold affinity change” value (PICK1 [6]) was “optimal 5-mer sequences”.
In the case of YIIV (DAT C5 VARIANT), the “Fold affinity change” value (PICK1 [6]) was “optimal 4-mer sequences”.
